The target of one assay is T1, human B1R receptor (CHO K1 cells stably transfected with the human B1R gene) (Homo sapiens, UniProt P46663).
T1 construct: expressed in transfected cells; host or cells: CHO K1 cells (Chinese hamster ovary), stably transfected
T1 sequence (P46663 1-353): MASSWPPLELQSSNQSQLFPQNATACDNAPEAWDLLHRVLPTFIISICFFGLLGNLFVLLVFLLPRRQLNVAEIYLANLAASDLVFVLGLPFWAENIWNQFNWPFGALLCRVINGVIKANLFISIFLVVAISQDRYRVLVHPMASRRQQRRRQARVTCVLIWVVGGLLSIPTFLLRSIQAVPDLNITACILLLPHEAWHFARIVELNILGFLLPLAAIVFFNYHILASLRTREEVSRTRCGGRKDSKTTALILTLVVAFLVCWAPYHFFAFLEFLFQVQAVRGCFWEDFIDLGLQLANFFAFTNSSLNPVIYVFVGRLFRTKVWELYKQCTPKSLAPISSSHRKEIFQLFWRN
Kind of assay: Functional study on the bradykinin receptor 1 (B1R), Ca2+ fluorescence (Fluo-4) FLIPR/Novostar assay, hB1R cells. The conditions noted are these: CHO-K1, read-out: % Inhibition (h-B1R) at 10 μM. It counts as cell-based. The method, then:
The agonistic or antagonistic action of substances can be quantified on the bradykinin receptor 1 (B1R) of the species human and rat using ectopically expressing cell lines (CHO K1 cells) and with the aid of a Ca^2+-sensitive dye (Fluo-4) using a fluorescent imaging plate reader (FLIPR). The indication in % activation is based on the Ca^2+ signal after addition of Lys-Des-Arg^9-bradykinin (0.5 nM) or Des-Arg^9-bradykinin (100 nM). Antagonists lead to suppression of the Ca^2+ influx after the addition of the agonist. % Inhibition compared with the maximum achievable inhibition is indicated.
The agonistic or antagonistic action of substances can be determined on the bradykinin receptor 1 (B1R) of the species human and rat using the following assay. According to this assay, the increase in intracellular Ca^2+ following administration of a B1R agonist is quantified with the aid of a Ca^2+-sensitive dye (Fluo-4 type, Molecular Probes Europe BV, Leiden, Netherlands) using a Fluorescent Imaging Plate Reader (FLIPR, Molecular Devices, Sunnyvale, USA) and/or using a Novostar (BMG Labtech GmbH, Offenburg, Germany).
Chinese hamster ovary cells (CHO K1 cells) which have been stably transfected with the human B1R gene (hB1R cells) or with the B1R gene of the rat (rB1R cells) are used. For functional studies, the cells are plated out on black 96-well plates having a clear base (BD Biosciences, Heidelberg, Germany or Greiner, Frickenhausen, Germany) in a density of 20,000-35,000 cells/well. The cells are left overnight at 37° C. and with 5% CO2 in culture medium (hB1R cells: Nutrient Mixture Ham's F12, Gibco Invitrogen GmbH, Karlsruhe, Germany or DMEM, Sigma-Aldrich, Taufkirchen, Germany; rB1R cells: D-MEM/F12, Gibco Invitrogen GmbH, Karlsruhe, Germany), with 10 vol. % FBS (fetal bovine serum, Gibco Invitrogen GmbH, Karlsruhe, Germany or PAN Biotech GmbH, Aidenbach, Germany). On the following day, the cells are loaded for 60 minutes at 37° C. with 2.13 μM Fluo-4 (Molecular Probes Europe BV, Leiden, Netherlands) in HBSS buffer (Hank's buffered saline solution, Gibco Invitrogen GmbH, Karlsruhe, Germany) […] (Sigma-Aldrich, Taufkirchen, Germany) and 10 mM HEPES (Sigma-Aldrich, Taufkirchen, Germany). The plates are then washed twice with HBSS buffer, and HBSS buffer additionally containing 0.1% BSA (bovine serum albumin; Sigma-Aldrich, Taufkirchen, Germany), 5.6 mM glucose and 0.05% gelatin (Merck KGaA, Darmstadt, Germany) is added to the plates. After incubation for a further 20 minutes at room temperature, the plates are inserted into the FLIPR or Novostar for Ca^2+ measurement. Alternatively, washing is carried out with buffer A (15 mM HEPES, 80 mM NaCl, 5 mM KCl, 1.2 mM CaCl2, 0.7 mM MgSO4, 2 g/l glucose, 2.5 mM probenecid) followed by loading with buffer A with added 2.5 μM Fluo-4 and 0.025% Pluronic F127 (Sigma-Aldrich, Taufkirchen, Germany). The cells are then washed twice with buffer A and incubated for 30 minutes at room temperature with buffer A additionally containing 0.05% BSA and 0.05% gelatin and are then inserted into the FLIPR or Novostar for Ca^2+ measurement. The Ca^2+-dependent fluorescence is measured before and after the addition of substances (λex=488 nm, λem=540 nm). Quantification is carried out by measuring the highest fluorescence intensity (FC, fluorescence counts) over time.
The FLIPR protocol consists of 2 substance additions, which are pipetted in the FLIPR. In the case of measurements using the Novostar, only the second substance addition is pipetted in the device. Both devices measure the fluorescence intensity over time. Test substances (10 μM) are first pipetted onto the cells and the intracellular Ca^2+ increase is compared with the control (hB1R: Lys-Des-Arg^9-bradykinin>=50 nM; rB1R: Des-Arg^9-bradykinin>=1 μM). This gives the % activation, based on the Ca^2+ signal after addition of Lys-Des-Arg^9-bradykinin (>=50 nM) or Des-Arg^9-bradykinin (>=1 μM). […]
What is called inhibition is the relative decrease from the control value, in per cent. As to `Cc1cc(N2CCC(N(C)C(=O)c3ccc4c(c3)C(NC(=O)CC(C)C)CC4)CC2)cc(C)n1` (centres unmarked) [CC_H-122, N-[1-(2,6-Dimethyl-pyridin-4-yl)-piperidin-4-yl]-N-methyl-3-(3-methyl-butanoylamino)-2,3-dihydro-1H-indene-5-carboxylic acid amide], the inhibition at 10 µM came out at 100%.
Turning to `Cc1cc(N2CCC(N(C)C(=O)c3ccc4c(c3)C(NC(=O)c3cnccc3C(F)(F)F)CC4)CC2)cc(C)n1` (centres unmarked) [CC_H-112, N-[6-[[1-(2,6-Dimethyl-pyridin-4-yl)-piperidin-4-yl]-methyl-carbamoyl]-2,3-dihydro-1H-inden-1-yl]-4-(trifluoromethyl)-pyridine-3-carboxylic acid amide], the inhibition at 10 µM was found to be 100%.
In the case of `Cc1cc(N2CCC(N(C)C(=O)c3ccc4c(c3)C(N(C)C(=O)c3cccc(Cl)c3Cl)CC4)CC2)cc(C)n1` (centres unmarked) [CC_H-83, 3-[(2,3-Dichloro-benzoyl)-methyl-amino]-N-[1-(2,6-dimethyl-pyridin-4-yl)-piperidin-4-yl]-N-methyl-2,3-dihydro-1H-indene-5-carboxylic acid amide], the inhibition at 10 µM was 100%.
On to `Cc1cccc(C)c1C(=O)NC1CC(C)(C)c2ccc(C(=O)N(C)C3CCN(c4ccncc4)CC3)cc21` (centres unmarked) [CC_H-85, 3-[(2,6-Dimethyl-benzoyl)amino]-N,1,1-trimethyl-N-(1-pyridin-4-yl-piperidin-4-yl)-2,3-dihydro-indene-5-carboxylic acid amide], for which the inhibition at 10 µM was 99%.
On to `CN(C(=O)c1ccc2c(c1)CCC2NC(=O)c1c(Cl)cccc1C(F)(F)F)C1CCN(c2ccncc2)CC1` (centres unmarked) [CC_H-127, 1-[[2-Chloro-6-(trifluoromethyl)-benzoyl]amino]-N-methyl-N-(1-pyridin-4-yl-piperidin-4-yl)-2,3-dihydro-1H-indene-5-carboxylic acid amide], for which the inhibition at 10 µM was 95%.
Take `Cc1cc(N2CCC(N(C)C(=O)c3ccc4c(c3)C(N(C)C(=O)c3cc(F)ccc3Cl)CC4)CC2)cc(C)n1` (centres unmarked) [CC_H-82, 3-[(2-Chloro-5-fluoro-benzoyl)-methyl-amino]-N-[1-(2,6-dimethyl-pyridin-4-yl)-piperidin-4-yl]-N-methyl-2,3-dihydro-1H-indene-5-carboxylic acid amide]: the inhibition at 10 µM stood at 100%.
Take `CN(C(=O)c1ccc2c(c1)C(NC(=O)c1ccccc1Cl)CCC2)C1CCN(c2ccncc2)CC1` (centres unmarked) [CC_H-73, 8-[(2-Chloro-benzoyl)amino]-N-methyl-N-(1-pyridin-4-yl-piperidin-4-yl)-5,6,7,8-tetrahydro-naphthalene-2-carboxylic acid amide]: the inhibition at 10 µM is 100%.
Same read-out and setting: under `Cc1cc(N2CCC(N(C)C(=O)c3ccc4c(c3)C(N(C)C(=O)c3sccc3Cl)CC4)CC2)cc(C)n1` (centres unmarked) [CC_H-88, 3-Chloro-N-[6-[[1-(2,6-dimethyl-pyridin-4-yl)-piperidin-4-yl]-methyl-carbamoyl]-2,3-dihydro-1H-inden-1-yl]-N-methyl-thiophene-2-carboxylic acid amide] stands 100%; under `Cc1cc(N2CCC(N(C)C(=O)c3ccc4c(c3)C(NS(=O)(=O)c3c(Cl)cccc3C(F)(F)F)CC4)CC2)cc(C)n1` (centres unmarked) [CC_H-111, 3-[[[2-Chloro-6-(trifluoromethyl)-phenyl]sulfonyl]amino]-N-[1-(2,6-dimethyl-pyridin-4-yl)-piperidin-4-yl]-N-methyl-2,3-dihydro-1H-indene-5-carboxylic acid amide], 100%.
Consider `CN(C(=O)c1ccc2c(c1)C(NC(=O)C1CCCCC1)CC2)C1CCN(c2ccncc2)CC1` (centres unmarked) [CC_H-140, 3-(Cyclohexanecarbonylamino)-N-methyl-N-(1-pyridin-4-yl-piperidin-4-yl)-2,3-dihydro-1H-indene-5-carboxylic acid amide], for which the inhibition at 10 µM stood at 100%.
For `O=C(NCCC1CCN(c2ccncc2)CC1)c1ccc2c(c1)C(NS(=O)(=O)Cc1ccccc1C(F)(F)F)CC2` (centres unmarked) [CC_H-128, N-[2-(1-Pyridin-4-yl-piperidin-4-yl)-ethyl]-3-[[[2-(trifluoromethyl)-phenyl]-methylsulfonyl]amino]-2,3-dihydro-1H-indene-5-carboxylic acid amide], the inhibition at 10 µM is 99%.
Still for that read-out and setting: under `CN(C(=O)c1ccc2c(c1)C(NC(=O)C(C)(C)c1ccccc1Cl)CC2)C1CCN(c2ccc3cnccc3c2)CC1` (centres unmarked) [CC_H-98, 3-[[2-(2-Chlorophenyl)-2-methyl-propanoyl]amino]-N-(1-isoquinolin-6-yl-piperidin-4-yl)-N-methyl-2,3-dihydro-1H-indene-5-carboxylic acid amide] stands 92%; under `Cc1cc(N2CCC(N(C)C(=O)c3ccc4c(c3)C(N(C)C(=O)c3c(C)cccc3C)CC4)CC2)cc(C)n1` (centres unmarked) [CC_H-91, 3-[(2,6-Dimethyl-benzoyl)-methyl-amino]-N-[1-(2,6-dimethyl-pyridin-4-yl)-piperidin-4-yl]-N-methyl-2,3-dihydro-1H-indene-5-carboxylic acid amide], 99%; under `CN(C(=O)c1ccc2c(c1)C(NC(=O)C(C)(C)c1ccccc1Cl)CC2(C)C)C1CCN(c2ccncc2)CC1` (centres unmarked) [CC_H-95, 3-[[2-(2-Chlorophenyl)-2-methyl-propanoyl]amino]-N,1,1-trimethyl-N-(1-pyridin-4-yl-piperidin-4-yl)-2,3-dihydro-indene-5-carboxylic acid amide], 100%.
In the case of `CN(C(=O)c1ccc2c(c1)CCC2NS(=O)(=O)c1c(Cl)cccc1C(F)(F)F)C1CCN(c2ccncc2)CC1` (centres unmarked) [CC_H-143, 1-[[[2-Chloro-6-(trifluoromethyl)-phenyl]sulfonyl]amino]-N-methyl-N-(1-pyridin-4-yl-piperidin-4-yl)-2,3-dihydro-1H-indene-5-carboxylic acid amide], the inhibition at 10 µM was 100%.

The assay is the same for the next values; noted with them: CHO-K1, read-out: % inhibition (human B1R) at 10 μM.
As to `Cc1cc(N2CCC(N(C)C(=O)c3ccc4c(c3)[C@H](N(C(=O)c3cc(F)ccc3Cl)C(C)C)CC4)CC2)nc(C)n1` [Example H-212, (3R)-3-[(2-Chloro-5-fluoro-benzoyl)-isopropyl-amino]-N-[1-(2,6-dimethyl-pyrimidin-4-yl)-piperidin-4-yl]-N-methyl-2,3-dihydro-1H-indene-5-carboxylic acid amide], the inhibition at 10 µM was determined as 82%.
On to `CN(C(=O)c1ccc2c(c1)[C@H](NC(=O)c1ccccc1Cl)CC2)C1CCN(c2cc[nH]c(=O)c2)CC1` [Example H-219, (3R)-3-[(2-Chloro-benzoyl)amino]-N-methyl-N-[1-(2-oxo-1H-pyridin-4-yl)-piperidin-4-yl]-2,3-dihydro-1H-indene-5-carboxylic acid amide], for which the inhibition at 10 µM is 79%.

(Values after patent US8680159B2, “Bradykinin 1 receptor modulating compounds” (Gruenenthal GmbH, priority 2010, dated 2014).)
